Some test systems named below: A498; ACHN; CAKI-1; HCC 2998; HCT-15; HL-60; HOP-62; HT-29; IGROV-1; LOX IMVI; Malme-3M; OVCAR-4; OVCAR-8; SF-268; SK-MEL-2; SK-MEL-5; SNB-75; UACC-62; Hs-578T.
Holding throughout (test): NCI anticancer screen, dose series, 48 h

The structures appear in SMILES notation.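 The compound was tested at five concentrations on cells cultured in 96-well plates, with a 48-hour exposure period. GI50: concentration for 50% inhibition of growth.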 Active and inactive are the calls of the source. No stated cut-off is given here; in the data, active = GI50 up to about 1.1 µM and inactive = higher.

Consider `Oc1ncnc2c1sc(=S)n2-c1ccccc1`, for which the GI50 in the assay with A498 was 94.8 µM (inactive); in the assay with ACHN, > 100 µM (inactive); with CAKI-1 it was > 100 µM (inactive); in the assay on HCC 2998 it was > 100 µM (inactive); in the assay with HCT-15, above 100 µM; with HL-60, > 100 µM (inactive). Besides, the GI50 in the assay on HOP-62, in the assay with HT-29, with IGROV-1, in the assay on LOX IMVI, in the assay on Malme-3M and with OVCAR-4 was > 100 µM (inactive) each time. Further, the GI50 in the assay on OVCAR-8, in the assay on SF-268, in the assay on SK-MEL-2, in the assay on SK-MEL-5, in the assay on SNB-75 and with UACC-62 was > 100 µM (inactive) throughout.

Turning to `COc1cc(O)ccc1C(=S)SC`, the GI50 in the assay with ACHN was 68.2 µM (inactive); with CAKI-1, 56.8 µM (inactive); in the assay on HCT-15, 40.8 µM; in the assay on HL-60, 23.6 µM (inactive); in the assay with HOP-62, > 100 µM (inactive); in the assay with HT-29 it was > 100 µM (inactive). The GI50 with Hs-578T is 24.1 µM (inactive); with IGROV-1, 42.6 µM (inactive); in the assay with Malme-3M, 39.2 µM (inactive); in the assay on OVCAR-4 it was 52 µM (inactive); with OVCAR-8, 58.7 µM (inactive); in the assay on SF-268, 67.1 µM (inactive). Also, the GI50 was > 100 µM (inactive) in the assay on SK-MEL-2, 26.5 µM (inactive) with SK-MEL-5, > 100 µM (inactive) in the assay with SNB-75 and 28.3 µM (inactive) in the assay on UACC-62.

As for `Cc1ccc(/N=N/c2c(-c3ccccc3)nn(C(=O)CC(=O)Nc3ccc(Cl)cc3)c2-c2ccccc2)cc1`, the GI50 with A498 was 31.8 µM (inactive); in the assay with ACHN, 79.6 µM (inactive); in the assay on CAKI-1, 55 µM (inactive); in the assay on HCC 2998 it was 56.1 µM (inactive); with HCT-15 it was 56.4 µM; in the assay on HL-60, 32.4 µM (inactive). Besides, the GI50 was 33.8 µM (inactive) in the assay on HOP-62; 65.3 µM (inactive) in the assay on HT-29; > 100 µM (inactive) in the assay with IGROV-1; 46.7 µM (inactive) with LOX IMVI; 83.6 µM (inactive) in the assay on Malme-3M; 77.3 µM (inactive) with OVCAR-4. For the same molecule, the GI50 in the assay with OVCAR-8 was 32.1 µM (inactive); with SF-268, 70.5 µM (inactive); in the assay with SK-MEL-2 it was 81.8 µM (inactive); in the assay on SK-MEL-5, 90.8 µM (inactive); with SNB-75, 20.6 µM (inactive); in the assay on UACC-62 it was 70.5 µM (inactive).

As to `CN(C)c1n/c(=N/c2ccc3c(c2)OCO3)ss1`, the GI50 was 43.9 µM (inactive) in the assay on A498; 84.9 µM (inactive) in the assay on ACHN; 97.7 µM (inactive) in the assay with CAKI-1; 44.4 µM (inactive) with HCC 2998; 40.4 µM in the assay on HCT-15; 19 µM (inactive) in the assay with HL-60. Further, the GI50 in the assay with HOP-62 is > 100 µM (inactive); with HT-29 it was 38.5 µM (inactive); with IGROV-1 it was > 100 µM (inactive); in the assay with LOX IMVI it was 64 µM (inactive); in the assay on Malme-3M it was > 100 µM (inactive); with OVCAR-4, > 100 µM (inactive). For the same molecule, the GI50 is 72.1 µM (inactive) with OVCAR-8; 47.6 µM (inactive) with SF-268; > 100 µM (inactive) with SK-MEL-2; 55.3 µM (inactive) in the assay on SK-MEL-5; 9.71 µM (inactive) in the assay with SNB-75; 58.3 µM (inactive) in the assay with UACC-62.

`COC(=O)[C@H](C)[C@H]1CC[C@@](C)([C@H]2CC3C(C)(C)[C@H]4CCC(C)=C[C@H]4C[C@@]3(C)O2)OO1` (stereo partly specified): the GI50 in the assay with A498 is 8.71 µM (inactive); with ACHN it was 10.4 µM (inactive); with CAKI-1, 5.13 µM (inactive); in the assay on HCC 2998, 6.68 µM (inactive); in the assay with HCT-15 it was 10.5 µM; with HL-60, 2.05 µM (inactive). In addition, the GI50 was 19.3 µM (inactive) with HOP-62; 13.5 µM (inactive) with HT-29; 5.69 µM (inactive) in the assay on IGROV-1; 1.6 µM (inactive) in the assay on LOX IMVI; 14.1 µM (inactive) in the assay on Malme-3M; 11.9 µM (inactive) in the assay with OVCAR-4. Also, the GI50 was 10.7 µM (inactive) in the assay on OVCAR-8; 8.77 µM (inactive) with SF-268; 15.4 µM (inactive) with SK-MEL-2; 4.72 µM (inactive) in the assay with SK-MEL-5; 6.14 µM (inactive) in the assay with SNB-75; 13.6 µM (inactive) in the assay with UACC-62.

For the molecule `NC(=O)C12CCC1C1CCCCC12N1CCOCC1` (stereo unspecified), the GI50 is > 100 µM (inactive) with A498; > 100 µM (inactive) in the assay with ACHN; > 100 µM (inactive) in the assay with CAKI-1; > 100 µM (inactive) in the assay with HCC 2998; above 100 µM with HCT-15; > 100 µM (inactive) in the assay with HL-60. Moreover, the GI50 with HOP-62, in the assay on HT-29, with IGROV-1, in the assay with LOX IMVI, in the assay on Malme-3M and in the assay with OVCAR-4 was > 100 µM (inactive) in each case. Also, the GI50 in the assay with OVCAR-8, in the assay with SF-268, in the assay with SK-MEL-2, in the assay with SK-MEL-5, with SNB-75 and in the assay with UACC-62 was > 100 µM (inactive) throughout.

Take `O=C1c2ccccc2C(=O)c2sc(Nc3cccc(Cl)c3)nc21`: the GI50 was 2.07 µM (inactive) in the assay on A498; 1.61 µM (inactive) in the assay on ACHN; 2.04 µM (inactive) in the assay with CAKI-1; 2.75 µM (inactive) with HCC 2998; 1.88 µM with HCT-15; 0.172 µM (active) in the assay on HL-60. The GI50 in the assay with HOP-62 was 1.82 µM (inactive); in the assay with HT-29 it was 3.34 µM (inactive); with IGROV-1, 2.07 µM (inactive); in the assay on LOX IMVI, 1.27 µM (inactive); in the assay with Malme-3M, 1.52 µM (inactive); in the assay on OVCAR-4, 1.45 µM (inactive). Besides, the GI50 in the assay on OVCAR-8 was 1.6 µM (inactive); with SF-268, 2.01 µM (inactive); in the assay with SK-MEL-2, 1.79 µM (inactive); in the assay with SK-MEL-5, 1.56 µM (inactive); with SNB-75 it was 1.82 µM (inactive); in the assay with UACC-62, 1.73 µM (inactive).

For `CCOc1ccc(/N=C\c2ccc3cc(C)ccc3n2)cc1`, the GI50 in the assay on A498 is 72.3 µM (inactive); in the assay with ACHN, 35.8 µM (inactive); in the assay on CAKI-1 it was 36.9 µM (inactive); in the assay on HCC 2998 it was 33.2 µM (inactive); in the assay on HCT-15, 41.8 µM; with HL-60 it was 19.5 µM (inactive). Also, the GI50 is > 100 µM (inactive) in the assay with HOP-62; 34.6 µM (inactive) in the assay with HT-29; 77.6 µM (inactive) with IGROV-1; 30.6 µM (inactive) with LOX IMVI; > 100 µM (inactive) in the assay on Malme-3M; 75.3 µM (inactive) in the assay with OVCAR-4. Besides, the GI50 in the assay with OVCAR-8 was 50.2 µM (inactive); in the assay on SF-268 it was 69 µM (inactive); in the assay on SK-MEL-2, 45.1 µM (inactive); in the assay with SK-MEL-5, 57.8 µM (inactive); with SNB-75 it was 40.7 µM (inactive); with UACC-62, 37.9 µM (inactive).

For the molecule `Clc1cc(Cl)c2n[se]nc2c1`, the GI50 was > 100 µM (inactive) in the assay on A498; > 100 µM (inactive) in the assay on ACHN; > 100 µM (inactive) in the assay with CAKI-1; > 100 µM (inactive) with HCC 2998; above 100 µM in the assay on HCT-15; > 100 µM (inactive) in the assay on HL-60. The GI50 is > 100 µM (inactive) in the assay on HOP-62; > 100 µM (inactive) in the assay with HT-29; > 100 µM (inactive) in the assay on IGROV-1; 69.7 µM (inactive) in the assay with LOX IMVI; > 100 µM (inactive) with Malme-3M; > 100 µM (inactive) with OVCAR-4. For the same molecule, the GI50 in the assay with OVCAR-8 is > 100 µM (inactive); with SF-268 it was > 100 µM (inactive); with SK-MEL-2, 94 µM (inactive); in the assay with SK-MEL-5, > 100 µM (inactive); in the assay on SNB-75 it was 60.1 µM (inactive); with UACC-62 it was > 100 µM (inactive).

Consider `CCN(CC)[C@@H]1c2cc3c(cc2C(c2cc(OC)c(O)c(OC)c2)C2C(=O)CO[C@@H]21)OCO3` (stereo partly specified), for which the GI50 was > 100 µM (inactive) with A498; > 100 µM (inactive) in the assay with ACHN; > 100 µM (inactive) in the assay on CAKI-1; > 100 µM (inactive) in the assay on HCC 2998; above 100 µM in the assay on HCT-15; > 100 µM (inactive) in the assay on HL-60. For the same molecule, the GI50 in the assay with HOP-62, with HT-29, with IGROV-1, with LOX IMVI, in the assay on Malme-3M and in the assay with OVCAR-4 was > 100 µM (inactive) in each case. Also, the GI50 in the assay on OVCAR-8, in the assay with SF-268, in the assay on SK-MEL-2, in the assay on SK-MEL-5, with SNB-75 and in the assay with UACC-62 was > 100 µM (inactive) each time.

`C=C1CC[C@@H]2C(C)(C)CCC[C@@]2(C)[C@@H]1Cc1cc(O)ccc1O`: the GI50 was 13.7 µM (inactive) in the assay with A498; 3.56 µM (inactive) in the assay on ACHN; 8.26 µM (inactive) with CAKI-1; 13.8 µM (inactive) in the assay on HCC 2998; 3.09 µM in the assay on HCT-15; 1.53 µM (inactive) with HL-60. Further, the GI50 with HOP-62 is 9.59 µM (inactive); with HT-29 it was 16.5 µM (inactive); in the assay on IGROV-1, 2.13 µM (inactive); in the assay with LOX IMVI, 2.16 µM (inactive); in the assay with Malme-3M, 5.25 µM (inactive); in the assay with OVCAR-4 it was 1.8 µM (inactive). Further, the GI50 in the assay with OVCAR-8 is 3.88 µM (inactive); with SF-268, 3.38 µM (inactive); in the assay on SK-MEL-2 it was 2.04 µM (inactive); in the assay on SK-MEL-5 it was 7.06 µM (inactive); in the assay with SNB-75 it was 1.95 µM (inactive); in the assay with UACC-62 it was 10.4 µM (inactive).

For the origin of these results see ChEMBL document CHEMBL1201862, “PubChem BioAssay data set” (2004).
